Tests used:
Conditions in all cases: exposure time: 72 h
E31 [1] = patient-derived glioblastoma stem cells of proneural subtype; test: phenotypic distance (Euclidean, principal components) from DMSO controls (arbitrary units); higher = stronger morphological change
E28 [2] = patient-derived glioblastoma stem cells of classical subtype; test: as above
E57 [3] = patient-derived glioblastoma stem cells of mesenchymal subtype; test: as above
E13 [4] = patient-derived glioblastoma stem cells of classical subtype; test: as above
E21 [5] = patient-derived glioblastoma stem cells of mesenchymal subtype; test: as above
E34 [6] = patient-derived glioblastoma stem cells of proneural subtype; test: as above
FT3469 [7] = normal neural stem cell line; test: as above
E31 [8] = test: surviving fraction (nuclei count normalised to DMSO); higher = more cells surviving (less toxic)
E28 [9] = test: as above
E57 [10] = test: as above
E13 [11] = test: as above
E21 [12] = test: as above
E34 [13] = test: as above
FT3469 [14] = test: as above
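For phenotypic distance (Euclidean, principal components) from DMSO controls in this document: cell Painting imaging in 384-well plates, CellProfiler features reduced to at least 20 principal components, Euclidean distance versus same-plate DMSO vehicle wells (0.1% v/v), median over six images per well.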
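For surviving fraction (nuclei count normalised to DMSO) in this document: nuclei counted by high-content imaging of Hoechst-stained cells in laminin-coated 384-well plates, relative to 0.1% DMSO vehicle wells, with staurosporine as cell-death control.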

OCCN1C[C@H](O)[C@@H](O)[C@H](O)[C@H]1CO [Miglitol]
Conditions | phenotypic distance | surviving fraction
E13 [4], 4.11523 nM | 0.578 | –
E13 [4], 12.34567901 nM | 0.499 | –
E13 [4], 37.037 nM | 0.296 | –
E13 [4], 111.1111111 nM | 0.445 | –
E13 [4], 333.333 nM | 0.7 | –
E13 [4], 1000 nM | 0.441 | –
E13 [4], 3000 nM | 0.584 | –
E13 [11], 4.11523 nM | – | 0.886
E13 [11], 12.34567901 nM | – | 0.888
E13 [11], 37.037 nM | – | 0.938
E13 [11], 111.1111111 nM | – | 0.955
E13 [11], 333.333 nM | – | 0.951
E13 [11], 1000 nM | – | 0.889
E13 [11], 3000 nM | – | 0.98
E21 [5], 4.11523 nM | 0.913 | –
E21 [5], 12.34567901 nM | 0.734 | –
E21 [5], 37.037 nM | 0.73 | –
E21 [5], 111.1111111 nM | 0.986 | –
E21 [5], 333.333 nM | 0.413 | –
E21 [5], 1000 nM | 0.51 | –
E21 [5], 3000 nM | 0.737 | –
E21 [12], 4.11523 nM | – | 0.916
E21 [12], 12.34567901 nM | – | 0.86
E21 [12], 37.037 nM | – | 0.996
E21 [12], 111.1111111 nM | – | 0.946
E21 [12], 333.333 nM | – | 0.949
E21 [12], 1000 nM | – | 0.914
E21 [12], 3000 nM | – | 0.993
E28 [2], 4.11523 nM | 0.488 | –
E28 [2], 12.34567901 nM | 0.943 | –
E28 [2], 37.037 nM | 1.54 | –
E28 [2], 111.1111111 nM | 0.838 | –
E28 [2], 333.333 nM | 0.651 | –
E28 [2], 1000 nM | 0.777 | –
E28 [2], 3000 nM | 0.637 | –
E28 [9], 4.11523 nM | – | 0.997
E28 [9], 12.34567901 nM | – | 0.913
E28 [9], 37.037 nM | – | 1.12
E28 [9], 111.1111111 nM | – | 0.877
E28 [9], 333.333 nM | – | 1.06
E28 [9], 1000 nM | – | 1.14
E28 [9], 3000 nM | – | 1.03
E31 [1], 4.11523 nM | 0.64 | –
E31 [1], 12.34567901 nM | 0.762 | –
E31 [1], 37.037 nM | 0.853 | –
E31 [1], 111.1111111 nM | 0.501 | –
E31 [1], 333.333 nM | 0.613 | –
E31 [1], 1000 nM | 0.778 | –
E31 [1], 3000 nM | 0.647 | –
E31 [8], 4.11523 nM | – | 0.768
E31 [8], 12.34567901 nM | – | 1.15
E31 [8], 37.037 nM | – | 0.954
E31 [8], 111.1111111 nM | – | 0.999
E31 [8], 333.333 nM | – | 1.01
E31 [8], 1000 nM | – | 1.17
E31 [8], 3000 nM | – | 0.956
E34 [6], 4.11523 nM | 0.65 | –
E34 [6], 12.34567901 nM | 0.713 | –
E34 [6], 37.037 nM | 0.625 | –
E34 [6], 111.1111111 nM | 0.702 | –
E34 [6], 333.333 nM | 0.456 | –
E34 [6], 1000 nM | 0.679 | –
E34 [6], 3000 nM | 0.758 | –
E34 [13], 4.11523 nM | – | 0.825
E34 [13], 12.34567901 nM | – | 1.07
E34 [13], 37.037 nM | – | 0.964
E34 [13], 111.1111111 nM | – | 1.17
E34 [13], 333.333 nM | – | 1.04
E34 [13], 1000 nM | – | 0.915
E34 [13], 3000 nM | – | 1.14
E57 [3], 4.11523 nM | 0.469 | –
E57 [3], 12.34567901 nM | 0.849 | –
E57 [3], 37.037 nM | 0.936 | –
E57 [3], 111.1111111 nM | 0.643 | –
E57 [3], 333.333 nM | 0.643 | –
E57 [3], 1000 nM | 0.624 | –
E57 [3], 3000 nM | 0.981 | –
E57 [10], 4.11523 nM | – | 1.03
E57 [10], 12.34567901 nM | – | 1.03
E57 [10], 37.037 nM | – | 1.06
E57 [10], 111.1111111 nM | – | 0.966
E57 [10], 333.333 nM | – | 0.955
E57 [10], 1000 nM | – | 0.997
E57 [10], 3000 nM | – | 1.1
FT3469 [7], 4.11523 nM | 3.01 | –
FT3469 [7], 12.34567901 nM | 0.609 | –
FT3469 [7], 37.037 nM | 0.908 | –
FT3469 [7], 111.1111111 nM | 0.767 | –
FT3469 [7], 333.333 nM | 0.996 | –
FT3469 [7], 1000 nM | 0.816 | –
FT3469 [7], 3000 nM | 0.734 | –
FT3469 [14], 4.11523 nM | – | 0.878
FT3469 [14], 12.34567901 nM | – | 0.954
FT3469 [14], 37.037 nM | – | 0.984
FT3469 [14], 111.1111111 nM | – | 0.963
FT3469 [14], 333.333 nM | – | 1.06
FT3469 [14], 1000 nM | – | 1.07
FT3469 [14], 3000 nM | – | 1.14

O=C1c2c(O)ccc(O)c2C(=O)c2c(NCCNCCO)ccc(NCCNCCO)c21 [Mitoxantrone]
Conditions | phenotypic distance | surviving fraction
E13 [4], 4.1 nM | 4.74 | –
E13 [4], 12.3 nM | 5.62 | –
E13 [4], 37 nM | 6.07 | –
E13 [4], 111.1 nM | 6.02 | –
E13 [4], 333.3 nM | 6.18 | –
E13 [4], 1000 nM | 6.49 | –
E13 [4], 3000 nM | 6.08 | –
E13 [11], 4.1 nM | – | 0.526
E13 [11], 12.3 nM | – | 0.451
E13 [11], 37 nM | – | 0.422
E13 [11], 111.1 nM | – | 0.338
E13 [11], 333.3 nM | – | 0.279
E13 [11], 1000 nM | – | 0.23
E13 [11], 3000 nM | – | 0.219
E21 [5], 4.1 nM | 2.94 | –
E21 [5], 12.3 nM | 4.27 | –
E21 [5], 37 nM | 6.11 | –
E21 [5], 111.1 nM | 6.48 | –
E21 [5], 333.3 nM | 6.79 | –
E21 [5], 1000 nM | 6.1 | –
E21 [5], 3000 nM | 5.74 | –
E21 [12], 4.1 nM | – | 0.689
E21 [12], 12.3 nM | – | 0.608
E21 [12], 37 nM | – | 0.448
E21 [12], 111.1 nM | – | 0.229
E21 [12], 333.3 nM | – | 0.207
E21 [12], 1000 nM | – | 0.209
E21 [12], 3000 nM | – | 0.189
E28 [2], 4.1 nM | 3.3 | –
E28 [2], 12.3 nM | 3.24 | –
E28 [2], 37 nM | 3.23 | –
E28 [2], 111.1 nM | 3.7 | –
E28 [2], 333.3 nM | 3.72 | –
E28 [2], 1000 nM | 3.17 | –
E28 [2], 3000 nM | 2.86 | –
E28 [9], 4.1 nM | – | 0.476
E28 [9], 12.3 nM | – | 0.359
E28 [9], 37 nM | – | 0.358
E28 [9], 111.1 nM | – | 0.262
E28 [9], 333.3 nM | – | 0.313
E28 [9], 1000 nM | – | 0.286
E28 [9], 3000 nM | – | 0.264
E31 [1], 4.1 nM | 2.71 | –
E31 [1], 12.3 nM | 3.14 | –
E31 [1], 37 nM | 2.43 | –
E31 [1], 111.1 nM | 2.42 | –
E31 [1], 333.3 nM | 2.72 | –
E31 [1], 1000 nM | 4.39 | –
E31 [1], 3000 nM | 4.07 | –
E31 [8], 4.1 nM | – | 0.243
E31 [8], 12.3 nM | – | 0.219
E31 [8], 37 nM | – | 0.311
E31 [8], 111.1 nM | – | 0.216
E31 [8], 333.3 nM | – | 0.218
E31 [8], 1000 nM | – | 0.127
E31 [8], 3000 nM | – | 0.142
E34 [6], 4.1 nM | 4.38 | –
E34 [6], 12.3 nM | 4.62 | –
E34 [6], 37 nM | 4.33 | –
E34 [6], 111.1 nM | 2.84 | –
E34 [6], 333.3 nM | 2.54 | –
E34 [6], 1000 nM | 1.99 | –
E34 [6], 3000 nM | 2.83 | –
E34 [13], 4.1 nM | – | 0.578
E34 [13], 12.3 nM | – | 0.494
E34 [13], 37 nM | – | 0.578
E34 [13], 111.1 nM | – | 0.615
E34 [13], 333.3 nM | – | 0.547
E34 [13], 1000 nM | – | 0.564
E34 [13], 3000 nM | – | 0.56
E57 [3], 4.1 nM | 8.68 | –
E57 [3], 12.3 nM | 9.84 | –
E57 [3], 37 nM | 8.24 | –
E57 [3], 111.1 nM | 6.95 | –
E57 [3], 333.3 nM | 7.05 | –
E57 [3], 1000 nM | 7.26 | –
E57 [3], 3000 nM | 6.66 | –
E57 [10], 4.1 nM | – | 0.245
E57 [10], 12.3 nM | – | 0.2
E57 [10], 37 nM | – | 0.174
E57 [10], 111.1 nM | – | 0.165
E57 [10], 333.3 nM | – | 0.161
E57 [10], 1000 nM | – | 0.159
E57 [10], 3000 nM | – | 0.17
FT3469 [7], 4.1 nM | 1.61 | –
FT3469 [7], 12.3 nM | 1.65 | –
FT3469 [7], 37 nM | 1.7 | –
FT3469 [7], 111.1 nM | 1.36 | –
FT3469 [7], 333.3 nM | 1.3 | –
FT3469 [7], 1000 nM | 2.01 | –
FT3469 [7], 3000 nM | 3.46 | –
FT3469 [14], 4.1 nM | – | 0.595
FT3469 [14], 12.3 nM | – | 0.645
FT3469 [14], 37 nM | – | 0.657
FT3469 [14], 111.1 nM | – | 0.604
FT3469 [14], 333.3 nM | – | 0.639
FT3469 [14], 1000 nM | – | 0.604
FT3469 [14], 3000 nM | – | 0.362
